Assay results reported in publication PMC12319374, “Efficient and Rapid Arylation of NH₂‐Unprotected Bromobisindole Ethanamines via Suzuki‐Miyaura Coupling: Generating New Leads Against Leishmania” (Chemistry (Weinheim an Der Bergstrasse, Germany), 2025).
Where “and” joins values, the source holds several entries; their conditions need not be identical. Equal entries are not always repeated. Entries after “also recorded” stand apart in the source; their conditions may differ.

Tests used:
[1] = system: L. infantum promastigotes; conditions: cited from earlier work; for IC50: read-out: IC50 against L. infantum promastigotes
[2] = system: intracellular L. infantum amastigotes; experiment: Anti-amastigote assay on infected THP-1 cells; assay type: cell-based, Leishmania infantum; conditions: 2 µM, 72 h treatment, differentiated THP-1 infected 24 h
Method: Figure 2 Effect of 3ca, 3af, and 3aq on intracellular L. infantum amastigotes. Differentiated THP‐1 cells were infected for 24 hours at 37°C; then, the different compounds were added at 2 µM, and the efficacy on intracellular amastigotes was calculated after 72 hours of treatment. Miltefosine was used as a positive control. (A) Percentages of infection are presented as mean ± SD. Ordinary one‐way ANOVA with Dunnett's multiple comparisons test. *p ≤ 0.05, **p ≤ 0.01 *** p ≤ 0.001. (B) Representative merged images showing THP‐1 cells stained with Hoechst dye (blue) and Leishmania amastigotes stained with CFSE (green).
The activity of compounds 3af, 3ca, and 3aq against intracellular amastigotes was evaluated in THP-1 infected cells. Briefly, THP-1 cells were seeded in a 12-well plate with a density of 3 × 10^5 cells/well and, to induce differentiation into macrophage-like cells, were treated with 20 ng/mL phorbol myristic acid (PMA) for 48 h. After differentiation, cells were infected for 24 h with L. infantum MHOM/TN/80/IPT1 promastigotes stained with carboxyfluorescein succinimidyl ester (eBioscience™ CFSE, Invitrogen) as described in reference, with a parasite-to-cell ratio of 10:1. Non-internalized promastigotes were then removed through medium replacement, and infected cells were treated with 3af, 3ca, and 3aq or with the positive control miltefosine for 72 h at concentrations of 2, 10, and 20 μM. To monitor the infection, cells were washed, formaldehyde/methanol fixed, stained with Hoechst dye, and observed with a fluorescence microscope at 5X or 10X magnification. For each field, two images were acquired: one with excitation at 340-390 nm (for Hoechst dye) and the other with excitation at 460-495 nm (for CFSE). Automated cell counting of single-color images was performed with ImageJ software to monitor the rate of infection, which was determined by normalizing the amastigote count from each green (CFSE) image to the THP-1 cell count from the corresponding blue (Hoechst) image. At least 500 THP-1 cells were counted for each condition. […]

[3] = system: L. infantum MHOM/TN/80/IPT1 promastigotes; experiment: L. infantum promastigotes viability assay (MTS); assay type: cell-based, Leishmania infantum; conditions: 72 h; for IC50 / inhibition at 20 µM: Leishmania infantum; for IC50: scalar dilutions 2:3 from 20 to 1.17 µM, mean (95% CI); for inhibition at 20 µM / Inhibition of L. infantum at 20 µM (%): single dose 20 µM
Method: (§1) Finally, eighteen compounds were first screened for efficacy against L. infantum MHOM/TN/80/IPT1 promastigotes at a single dose of 20 µM for 72 hours.
(§2) L. infantum MHOM/TN/80/IPT1 (WHO international reference strain) was purchased from ATCC (ATCC® 50134™) and was cultured in Evans's Modified Tobie Medium (EMTM) at 26–28 °C. To test the compounds, parasites were resuspended in RPMI-PY medium as described previously. The human monocytic cell line THP-1 (ECACC 88081201) was cultured in RPMI-1640 medium supplemented with 10% heat-inactivated Fetal Bovine Serum (FBS), 100 μg/ml streptomycin, […] and maintained in a humidified incubator at 37 °C and 5% CO2. All the cell culture reagents were purchased from Sigma-Aldrich (St. Louis, MO, USA).
Late log/stationary phase L. infantum promastigotes were resuspended in RPMI-PY medium at a density of 2.5×10^6 parasites/mL in 96-well plates (100μL/well). The anti-parasitic activity of the eighteen compounds of the library was initially investigated at a single dose of 20 μM for 72 h at 26 °C. […] Not treated parasites were included as negative control. As positive control, the anti-leishmanial drug miltefosine (Sigma-Aldrich, Milan, Italy) was used. Each condition was carried out in duplicate. To evaluate the promastigotes viability, the CellTiter 96H Aqueous Non-Radioactive Cell Proliferation Assay (Promega), based on the ability of viable cells to convert a soluble tetrazolium salt [3-(4.5-dimethylthiazol-2-yl)-5-(3-carboxymethoxy-phenyl)-2-(4-sulfophenyl)-2H-tetrazolium. MTS] to a formazan product, was performed. To this end, 20 μL of MTS/PMS (phenazinemethosulfate, Sigma-Aldrich) was added to 100 μL of culture medium and incubated at 26°C until formazan production. Absorbance was recorded on a Microplate Reader (Infinite® F50 Plus, Tecan) at 492 nm. The IC50 values were calculated using nonlinear regression curves in GraphPad Prism 8.0 (GraphPad Software,Inc., San Diego, CA). The equation used for data fitting was Y= 100/(1 + 10∧((Log IC50 −X)*HillSlope)) (hillslope not constrained), where X is the log of concentration and Y is the normalized response. […]

THP-1 cells = experiment: Evaluation of cytotoxicity on THP-1 cells (MTS); assay type: cell-based, human; conditions: for Cytotoxicity on THP‐1 (100, 20, 4 µM) (%): 72 h, PMA-differentiated THP-1; for SI (Selectivity index = CC50/IC50): CC50 THP-1 (72 h) / IC50 L. infantum promastigotes (72 h)
Method: as §1, §2
(§3) The cytotoxicity of the compounds was assessed on THP-1 cells seeded at a density of 5 × 10^5 cells per mL, 100μL/well in a 96-well plate and treated for 72 h with 20 ng/mL phorbol myristic acid (PMA) to induce differentiation into macrophages like cells. After cell adhesion to the plate, each molecule was tested at 4, 20 and 100 μM for 72 h at 37 °C.
(§4) Three selected compounds were further evaluated at different concentration, obtained from scalar dilutions 1:2 (from 100 µM to 3.12 μM) for 72 h at 37°C. The negative control (untreated THP-1 cells) and the positive control (miltefosine) were included in each experiment. Each condition was carried out in duplicate. To evaluate the compounds cytotoxicity, the CellTiter 96H Aqueous Non-Radioactive Cell Proliferation Assay (Promega), was used as described before. […]

[4] = Evaluation of cytotoxicity on THP-1 cells (MTS); assay type: cell-based, human; conditions: human; 72 h, scalar dilutions 1:2 from 100 to 3.12 µM; mean (95% CI); read-out: THP‐1 CC50 (µM) (95% CI)
Method: as §1, §2, §3, §4

[5] = target: L. donovani DNA topoisomerase I; parameters: method as in PMID 17922678; conditions: read-out: IC50 (DNA topoisomerase I poison); cited from earlier work
L. donovani = system: L. donovani; parameters: method as in PMID 23517732; conditions: read-out: IC50 against L. donovani; cited from earlier work
[6] = system: human macrophage‐type THP‐1 cell; parameters: method as in PMID 38870204; conditions: cited from earlier work
Leishmania infection = system: Leishmania infection; parameters: method as in PMID 38870204; conditions: mouse infection model; cited from earlier work
[7] = parameters: method as in PMID 38870204; conditions: cited from earlier work
mammalian cells = system: mammalian cells; parameters: method as in PMID 34984300; conditions: cited from earlier work

| Compound | Effect on infection (intracellular amastigotes) [2] | IC50 [3] | inhibition at 20 µM [3] | Cytotoxicity on THP‐1 (100, 20, 4 µM) (%) (THP-1 cells; 4 µM) | Cytotoxicity on THP‐1 (100, 20, 4 µM) (%) (THP-1 cells; 20 µM) | Cytotoxicity on THP‐1 (100, 20, 4 µM) (%) (THP-1 cells; 100 µM) | SI (Selectivity index = CC50/IC50) (THP-1 cells) | CC50 at 72 h [4] | further results |
| --- | --- | --- | --- | --- | --- | --- | --- | --- | --- |
| NCC(c1c[nH]c2cc(Br)ccc12)c1c[nH]c2cc(Br)ccc12 [1a, 2,2‐bis(6‐bromo‐1H‐indol‐3‐yl) ethanamine] | – | – | – | – | – | – | – | – | Activity against L. infantum [1]: active |
| C=Cc1ccc(-c2ccc3c(C(CN)c4c[nH]c5cc(-c6ccc(C=C)cc6)ccc45)c[nH]c3c2)cc1 [3af, 2,2-bis(6-(4-vinylphenyl)-1H-indol-3-yl)ethan-1-amine] | significant reduction in the infection; also recorded: significant activity | 1.1 µM | > 98% | −14% | 97% | 78% | 21.8 | 24 µM | Inhibition of L. infantum at 20 µM (%) [3]: 98.7% |
| NCC(c1c[nH]c2cc(-c3cccc4[nH]ccc34)ccc12)c1c[nH]c2cc(-c3cccc4[nH]ccc34)ccc12 [3aq, 2,2-di(1H,1'H-[4,6'-biindol]-3'-yl)ethan-1-amine] | significant reduction in the infection; also recorded: significant activity | 2.8 µM | 96.9% | −16% | 72.9% and 73% | 89% | 5.2 | 14.6 µM | – |
| NCC(c1c[nH]c2c(-c3ccccc3)cccc12)c1c[nH]c2c(-c3ccccc3)cccc12 [3ca, 2,2-bis(7-phenyl-1H-indol-3-yl)ethan-1-amine] | significant reduction in the infection; also recorded: significant activity | 1.7 µM | > 98% | −19% | 98% | 89% | 10.7 | 18.1 µM | Inhibition of L. infantum at 20 µM (%) [3]: 98.0% |
| c1ccc2c(Cc3c[nH]c4ccccc34)c[nH]c2c1 [DIM, 3,3′‐Diindolylmethane] | – | – | – | – | – | – | – | – | IC50 [5]: 1.2 µM |
| O=[N+]([O-])c1ccc(C(c2c[nH]c3ccc(I)cc23)c2c[nH]c3ccc(I)cc23)cc1 [II] | – | – | – | – | – | – | – | – | IC50 (L. donovani): < 10 µM |
| Clc1ccc(CNCC(c2c[nH]c3cc(Br)ccc23)c2c[nH]c3cc(Br)ccc23)cc1 [I] | – | – | – | – | – | – | – | – | CC50 [6]: 11.7 µM; IC50 [1]: 2.7 µM |
| CCOC(=O)c1c(C(=O)OC)cn(CC(c2cn(C)c3ccccc23)c2cn(C)c3ccccc23)c1C [URB1483] | – | – | – | – | – | – | – | – | Outcome of in vivo studies (Leishmania infection): failed; Water solubility [7]: poor; Cytotoxicity in mammalian cells (mammalian cells): no quantifiable cytotoxicity; IC50 [1]: 3.7 µM |
